Assay results reported in ChEMBL document CHEMBL3785074, “Molecular modeling and snake venom phospholipase A2 inhibition by phenolic compounds: Structure-activity relationship” (Eur J Med Chem, 2016).
Active and inactive are the calls of the source. No cut-off for these calls is given here.

What was measured:
[1] = Protective activity against Daboia russellii venom-induced mortality in Swiss albino mouse at 100 mmol, iv administered immediately after venom injection measured after 24 hrs relative to untreated control; format: functional, Daboia russelii
[2] = Protective activity against Naja kaouthia venom-induced mortality in Swiss albino mouse at 100 mmol, iv preincubated with venom for 1 hr followed by administration to mouse measured after 24 hrs relative to untreated control; format: functional
Daboia russelii [3] = experiment: Protective activity against Daboia russellii venom-induced coagulation in goat plasma assessed as increase in plasma recalcification time at 20 mmol preincubated with venom for 1 hr followed by plasma addition; format: functional, cell-free
[4] = Protective activity against Naja kaouthia venom-induced mortality in Swiss albino mouse at 100 mmol, iv by measuring venom LD50 administered immediately after venom injection measured after 24 hrs (reference value: 2.82 ug); format: functional
[5] = Lipophilicity, log P of compound; format: physicochemical; details: octanol/water
[6] = Protective activity against Daboia russellii venom-induced defibrinogenation in iv dosed Swiss albino mouse assessed as venom level causing blood coagulation at 100 mmol preincubated with venom for 1 hr followed by administration to mouse (reference value: 2.5 ug); format: functional, Daboia russelii
[7] = Protective activity against Daboia russellii venom-induced mortality in Swiss albino mouse at 100 mmol, iv preincubated with venom for 1 hr followed by administration to mouse measured after 24 hrs relative to untreated control; format: functional, Daboia russelii
Daboia russelii [8] = experiment: (§1) Protective activity against Daboia russellii venom-induced defibrinogenation in iv dosed Swiss albino mouse assessed as venom level causing blood coagulation at 100 mmol preincubated with venom for 1 hr followed by administration to mouse relative to untreated; format: functional
[9] = Protective activity against Daboia russellii venom-induced mortality by measuring venom LD50 in Swiss albino mouse at 100 mmol, iv preincubated with venom for 1 hr followed by administration to mouse measured after 24 hrs (reference value: 2.28 ug); format: functional, Daboia russelii
[10] = (§2) Protective activity against Daboia russellii venom-induced hemorrhage in Swiss albino mouse at 100 mmol, iv assessed as hemorhagic lesion by measuring […] administered immediately after venom injection measured after 24 hrs (Rvb =5 ug); format: functional, Daboia russelii
[11] = Protective activity against Naja kaouthia venom-induced mortality in Swiss albino mouse at 100 mmol, iv administered immediately after venom injection measured after 24 hrs relative to untreated control; format: functional
[12] = Protective activity against Naja kaouthia venom-induced mortality in Swiss albino mouse at 100 mmol, iv by measuring venom LD50 preincubated with venom for 1 hr followed by administration to mouse measured after 24 hrs (reference value: 2.82 ug); format: functional
[13] = Protective activity against Daboia russellii venom-induced mortality in iv dosed Swiss albino mouse administered 60 mins after venom injection relative to untreated control; format: functional, Daboia russelii
[14] = Protective activity against Daboia russellii venom-induced defibrinogenation in iv dosed Swiss albino mouse assessed as venom level causing blood coagulation at 100 mmol administered immediately after venom injection (reference value: 2.5 ug); format: functional, Daboia russelii
Naja kaouthia [15] = experiment: Protective activity against Naja kaouthia venom-induced mortality in iv dosed Swiss albino mouse assessed as administered 30 to 60 mins after venom injection; format: functional, organism-based
[16] = Protective activity against Daboia russellii venom-induced hemorrhage in Swiss albino mouse at 100 mmol, iv assessed as hemorhagic lesion administered immediately after venom injection measured after 24 hrs relative to untreated control; format: functional, Daboia russelii
[17] = (§3) Protective activity against Daboia russellii venom-induced hemorrhage in intradermally dosed Swiss albino mouse at 100 mmol assessed as hemorhagic lesion by measuring minimal […] dose preincubated with venom for 1 hr followed by administration to mouse measured after 24 hrs (reference value: 5 ug); format: functional, Daboia russelii
[18] = Protective activity against Daboia russellii venom-induced hemorrhage in intradermally dosed Swiss albino mouse at 100 mmol assessed as hemorhagic lesion preincubated with venom for 1 hr followed by administration to mouse measured after 24 hrs relative to untreated control; format: functional, Daboia russelii
[19] = (§4) Protective activity against Daboia russellii venom-induced mortality in Swiss albino mouse at 100 mmol, iv by measuring venom LD50 administered immediately after venom injection measured after 24 hrs (reference value: 2.28ug); format: functional, Daboia russelii
Daboia russelii [20] = experiment: (§5) Protective activity against Daboia russellii venom-induced defibrinogenation in iv dosed Swiss albino mouse assessed as blood coagulation at 100 mmol administered immediately after venom injection relative to untreated control; format: functional
[21] = Protective activity against Daboia russellii venom-induced mortality in Swiss albino mouse at 12 mmol, iv by measuring venom LD50 administered immediately after venom injection measured after 24 hrs (reference value: 2.28ug); format: functional, Daboia russelii
[22] = Protective activity against Naja kaouthia venom-induced mortality in Swiss albino mouse at 12 mmol, iv by measuring venom LD50 preincubated with venom for 1 hr followed by administration to mouse measured after 24 hrs (reference value: 2.82 ug); format: functional
[23] = Protective activity against Daboia russellii venom-induced mortality by measuring venom LD50 in Swiss albino mouse at 12 mmol, iv preincubated with venom for 1 hr followed by administration to mouse measured after 24 hrs (reference value: 2.28 ug); format: functional, Daboia russelii
Naja kaouthia [24] = experiment: Protective activity against Naja kaouthia venom-induced mortality in Swiss albino mouse at 12 mmol, iv by measuring venom LD50 administered immediately after venom injection measured after 24 hrs (reference value: 2.82 ug); format: functional, organism-based
[25] = Protective activity against Daboia russellii venom-induced hemorrhage in intradermally dosed Swiss albino mouse at 12 mmol assessed as hemorhagic lesion by measuring minimal […] dose preincubated with venom for 1 hr followed by administration to mouse measured after 24 hrs (reference value: 5 ug); format: functional, Daboia russelii
[26] = Protective activity against Daboia russellii venom-induced hemorrhage in Swiss albino mouse at 12 mmol, iv assessed as hemorhagic lesion by measuring […] administered immediately after venom injection measured after 24 hrs (Rvb =5 ug); format: functional, Daboia russelii
[27] = Protective activity against Daboia russellii venom-induced mortality in iv dosed Swiss albino mouse administered 30 mins after venom injection relative to untreated control; format: functional, Daboia russelii
[28] = biological target: T1, Basic phospholipase A2 VRV-PL-VIIIa (Daboia russelii) (UniProt P59071); experiment: Inhibition of Daboia russellii venom PLA2 activity assessed as decrease in coagulation time of egg yolk at 20 mmol preincubated with venom for 1 hr followed by egg yolk addition measured after 1 hr
T1 sequence (whole entry): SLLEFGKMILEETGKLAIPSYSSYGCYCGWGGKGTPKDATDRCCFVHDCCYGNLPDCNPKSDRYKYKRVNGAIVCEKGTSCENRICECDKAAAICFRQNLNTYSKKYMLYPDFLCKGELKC

[29] = as §1; format: functional, Daboia russelii
Daboia russelii [30] = experiment: Protective activity against Daboia russellii venom-induced mortality in iv dosed Swiss albino mouse administered immediately after venom injection relative to untreated control; format: functional, organism-based
[31] = as §5; format: functional, Daboia russelii
Daboia russelii [32] = experiment: as §3; format: functional
Naja kaouthia [33] = system: Naja kaouthia
Naja kaouthia [34] = system: Naja kaouthia; remark: listed apart in the source
Description: Protective activity against Naja kaouthia venom-induced mortality in Swiss albino mouse at 100 mmol, iv by measuring venom LD50 administered immediately after venom injection measured after 24 hrs (Rvb = 2.82 ug)

Daboia russelii [35] = system: Daboia russelii
Daboia russelii [36] = experiment: as §2; format: functional
Daboia russelii [37] = experiment: as §4; format: functional

O=Cc1ccc(O)cc1O
fold change (FC) [1]: 2.5
fold change (FC) [2]: 1
Activity (Daboia russelii [3]): Active
LD50 [4]: 8 µg
logP ([5]; read-out: logP): 1.19
Activity [6]: 2.5 µg
fold change (FC) [7]: 2.6
fold change (FC) (Daboia russelii [8]): inactive
LD50 [9]: 6 µg
MHC [10]: 5 µg
fold change (FC) [11]: 1.6
LD50 [12]: 3 µg
Activity [13]: 10%
Activity [14]: 2.5 µg
Activity (Naja kaouthia [15]): inactive
fold change (FC) [16]: 1
MHC [17]: 50 µg
fold change (FC) [18]: 10
LD50 [19]: 100 µg
fold change (FC) (Daboia russelii [20]): inactive

CC(=O)Oc1ccccc1C(=O)O [ASPIRIN]
LD50 [21]: 50 µg
logP ([5]; read-out: logP): 1.24
LD50 [22]: 3 µg
LD50 [23]: 6.6 µg
LD50 (Naja kaouthia [24]): inactive
MHC [25]: 100 µg
MHC [26]: 10 µg

COc1cccc(CO)c1O
fold change (FC) [1]: 3.75
fold change (FC) [2]: 3.2
Activity (Daboia russelii [3]): Active
Activity [27]: 40%
LD50 [4]: 10 µg
Activity [6]: 25 µg
inhibition [28]: Active
fold change (FC) [7]: 11.2
fold change (FC) [29]: 10
LD50 [9]: 25 µg
MHC [10]: 10 µg
fold change (FC) [11]: 2
LD50 [12]: 9 µg
Activity [13]: 10%
Activity [14]: 3.5 µg
Activity (Naja kaouthia [15]): inactive
fold change (FC) [16]: 2
MHC [17]: 40 µg
fold change (FC) [18]: 8
LD50 [19]: 150 µg
Activity (Daboia russelii [30]): Active
fold change (FC) [31]: 1.5

O=Cc1ccccc1O
MHC [10]: 10 µg
MHC (Daboia russelii [32]): inactive

CC(=O)Oc1ccc(C=O)c(O)c1
LD50 (Naja kaouthia [33]): inactive
logP ([5]; read-out: logP): 0.94
LD50 (Naja kaouthia [34]): inactive
LD50 (Daboia russelii [35]): inactive
MHC (Daboia russelii [36]): inactive
MHC (Daboia russelii [32]): inactive
LD50 (Daboia russelii [37]): inactive

O=[N+]([O-])c1ccc2c(c1)OCO2
LD50 (Naja kaouthia [33]): inactive
logP ([5]; read-out: logP): 1.47
LD50 (Naja kaouthia [34]): inactive
LD50 (Daboia russelii [35]): inactive
MHC (Daboia russelii [36]): inactive
MHC (Daboia russelii [32]): inactive
LD50 (Daboia russelii [37]): inactive

OCc1cccc(O)c1O
fold change (FC) [1]: 2.5
fold change (FC) [2]: 2.1
Activity (Daboia russelii [3]): Active
LD50 [4]: 10 µg
Activity [6]: 2.5 µg
fold change (FC) [7]: 8
fold change (FC) (Daboia russelii [8]): inactive
LD50 [9]: 18 µg
MHC [10]: 10 µg
fold change (FC) [11]: 2
LD50 [12]: 6 µg
Activity [14]: 2.5 µg
Activity (Naja kaouthia [15]): inactive
fold change (FC) [16]: 2
MHC [17]: 15 µg
fold change (FC) [18]: 3
LD50 [19]: 100 µg
fold change (FC) (Daboia russelii [20]): inactive

COc1ccc(C=O)c(O)c1
fold change (FC) [1]: 3.75
fold change (FC) [2]: 3.2
Activity (Daboia russelii [3]): Active
Activity [27]: 40%
LD50 [4]: 10 µg
logP ([5]; read-out: logP): 3.19
Activity [6]: 22 µg
fold change (FC) [7]: 9.8
fold change (FC) [29]: 8.8
LD50 [9]: 22 µg
MHC [10]: 10 µg
fold change (FC) [11]: 2
LD50 [12]: 9 µg
Activity [13]: 10%
Activity [14]: 3.5 µg
Activity (Naja kaouthia [15]): inactive
fold change (FC) [16]: 2
MHC [17]: 50 µg
fold change (FC) [18]: 10
LD50 [19]: 150 µg
Activity (Daboia russelii [30]): Active
fold change (FC) [31]: 1.5

O=Cc1ccccc1 [BENZALDEHYDE]
LD50 (Naja kaouthia [33]): inactive
logP ([5]; read-out: logP): 1.47
LD50 (Naja kaouthia [34]): inactive
LD50 (Daboia russelii [35]): inactive
MHC (Daboia russelii [36]): inactive
MHC (Daboia russelii [32]): inactive
LD50 (Daboia russelii [37]): inactive

COc1cccc(C=O)c1O
fold change (FC) [1]: 3.75
fold change (FC) [2]: 3.2
Activity (Daboia russelii [3]): Active
Activity [27]: 40%
LD50 [4]: 10 µg
logP [5]: 2.39
Activity [6]: 25 µg
fold change (FC) [7]: 11.2
fold change (FC) [29]: 10
LD50 [9]: 25 µg
MHC [10]: 10 µg
fold change (FC) [11]: 2
LD50 [12]: 9 µg
Activity [13]: 10%
Activity [14]: 3.5 µg
Activity (Naja kaouthia [15]): inactive
fold change (FC) [16]: 2
MHC [17]: 50 µg
fold change (FC) [18]: 10
LD50 [19]: 150 µg
Activity (Daboia russelii [30]): Active
fold change (FC) [31]: 1.5
